In PubChem BioAssay AID248 (DTP/NCI, 2004):
Inconclusive results and toxic doses are left out. Cut-off read from the data, not from the text of the source: active = T/C of 150% or more; inactive = T/C below 125%.

System: L1210 leukemia ip in BDF1 mice, survival T/C
Experiment: NCI In Vivo Anticancer Drug Screen. Data for tumor model L1210 Leukemia (intraperitoneal) in B6D2F1 (BDF1) mice
Details: endpoint: mean survival time, higher = longer survival
Summary of the method: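 Value reflects the ratio of survival in compound-treated mice to survival in vehicle-treated controls, with both groups carrying the same transplanted tumor.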

[1] = dose: 100.0 mg/kg/injection, schedule: Q01DX009 (ip), vehicle: Klucel (hydroxypropylcellulose) (HPC)
[2] = dose: 100.0 mg/kg/injection, schedule: Q04DX003 (ip), vehicle: Klucel (hydroxypropylcellulose) (HPC)
[3] = dose: 200.0 mg/kg/injection, schedule: Q01DX009 (ip), vehicle: Klucel (hydroxypropylcellulose) (HPC)
[4] = dose: 200.0 mg/kg/injection, schedule: Q04DX003 (ip), vehicle: Klucel (hydroxypropylcellulose) (HPC)
[5] = dose: 400.0 mg/kg/injection, schedule: Q01DX009 (ip), vehicle: Klucel (hydroxypropylcellulose) (HPC)
[6] = dose: 400.0 mg/kg/injection, schedule: Q04DX003 (ip), vehicle: Klucel (hydroxypropylcellulose) (HPC)
[7] = dose: 100.0 mg/kg/injection, schedule: Q04DX003 (ip), vehicle: saline
[8] = dose: 200.0 mg/kg/injection, schedule: Q04DX003 (ip), vehicle: saline
[9] = dose: 100.0 mg/kg/injection, schedule: Q01DX001 (ip), vehicle: carboxymethylcellulose (CMC)
[10] = dose: 200.0 mg/kg/injection, schedule: Q01DX001 (ip), vehicle: carboxymethylcellulose (CMC)
[11] = dose: 100.0 mg/kg/injection, schedule: Q01DX001 (ip), vehicle: saline
[12] = dose: 200.0 mg/kg/injection, schedule: Q01DX001 (ip), vehicle: saline
[13] = dose: 400.0 mg/kg/injection, schedule: Q01DX001 (ip), vehicle: saline
[14] = dose: 100.0 mg/kg/injection, schedule: Q04DX002 (ip), vehicle: Klucel (hydroxypropylcellulose) (HPC)
[15] = dose: 200.0 mg/kg/injection, schedule: Q04DX002 (ip), vehicle: Klucel (hydroxypropylcellulose) (HPC)
[16] = dose: 400.0 mg/kg/injection, schedule: Q04DX002 (ip), vehicle: Klucel (hydroxypropylcellulose) (HPC)

Measured: T/C

CCc1ccc(NC(=O)Nc2cccc3ccccc23)cc1
inactive: [1] 87 % of control | [2] 98 % of control | [3] 90 % of control | [4] 90 % of control | [5] 92 % of control | [6] 96 % of control

COC(=O)c1ccccc1N=Nc1cc(C)c(C)cc1O
inactive: [1] 88 % of control | [3] 88 % of control | [5] 91 % of control

NNC(=O)C1CC2C=CC1C2 (stereo unspecified)
inactive: dose: 100.0 mg/kg/injection, schedule: Q01DX009 (ip), vehicle: saline 100 % of control | dose: 200.0 mg/kg/injection, schedule: Q01DX009 (ip), vehicle: saline 103 % of control

COC(=O)C1CCCN1C(=O)C1CSC(C)(C)N1C=O (stereo unspecified)
inactive: [7] 103 % of control | [8] 92 % of control | dose: 400.0 mg/kg/injection, schedule: Q04DX003 (ip), vehicle: saline 92 % of control

O=C1OC(=O)N2N=CC=CC12 (stereo unspecified)
inactive: dose: 100.0 mg/kg/injection, schedule: Q01DX009 (ip), vehicle: saline with Tween-80 102 % of control | dose: 200.0 mg/kg/injection, schedule: Q01DX009 (ip), vehicle: saline with Tween-80 100 % of control | dose: 400.0 mg/kg/injection, schedule: Q01DX009 (ip), vehicle: saline with Tween-80 96 % of control

COc1ccccc1NC(=O)Nc1cc(C)ccc1C
inactive: [1] 88 % of control | [2] 90 % of control | [3] 92 % of control | [4] 95 % of control | [5] 88 % of control | [6] 88 % of control

NC(N)=N/N=C/c1ccc(O)cc1
inactive: dose: 15.0 mg/kg/injection, schedule: Q01DX Z (ip), vehicle: saline 104 % of control | dose: 30.0 mg/kg/injection, schedule: Q01DX Z (ip), vehicle: saline 88 % of control | dose: 30.0 mg/kg/injection, schedule: Q01DX Z (oral), vehicle: saline 94 % of control | dose: 60.0 mg/kg/injection, schedule: Q01DX Z (ip), vehicle: saline 95 % of control | dose: 60.0 mg/kg/injection, schedule: Q01DX Z (oral), vehicle: saline 94 % of control | dose: 120.0 mg/kg/injection, schedule: Q01DX Z (oral), vehicle: saline 90 % of control | dose: 240.0 mg/kg/injection, schedule: Q01DX Z (oral), vehicle: saline 100 % of control

CCOC(=O)CCc1c(C)c2cc(C(C)=O)c(O)cc2oc1=O
inactive: [9] 89 % of control | [10] 94 % of control | dose: 400.0 mg/kg/injection, schedule: Q01DX001 (ip), vehicle: carboxymethylcellulose (CMC) 103 % of control

COc1ccccc1N=Nc1c(O)n(-c2ccccc2C)c(=S)n(-c2ccccc2OC)c1=O
inactive: dose: 25.0 mg/kg/injection, schedule: Q04DX003 (ip), vehicle: Klucel (hydroxypropylcellulose) (HPC) 98 % of control | dose: 50.0 mg/kg/injection, schedule: Q04DX003 (ip), vehicle: Klucel (hydroxypropylcellulose) (HPC) 98 % of control | dose: 100.0 mg/kg/injection, schedule: Q01DX001 (ip), vehicle: Klucel (hydroxypropylcellulose) (HPC) 109 % of control | [2] 91 % of control | dose: 200.0 mg/kg/injection, schedule: Q01DX001 (ip), vehicle: Klucel (hydroxypropylcellulose) (HPC) 98 % of control

OC12c3ccccc3C1(c1ccccn1)c1ccccc12 (stereo unspecified)
inactive: dose: 100.0 mg/kg/injection, schedule: Q01DX009 (ip), vehicle: gum acacia 98 % of control | dose: 100.0 mg/kg/injection, schedule: Q04DX003 (ip), vehicle: gum acacia 98 % of control | dose: 200.0 mg/kg/injection, schedule: Q01DX009 (ip), vehicle: gum acacia 96 % of control | dose: 200.0 mg/kg/injection, schedule: Q04DX003 (ip), vehicle: gum acacia 98 % of control | dose: 400.0 mg/kg/injection, schedule: Q01DX009 (ip), vehicle: gum acacia 100 % of control | dose: 400.0 mg/kg/injection, schedule: Q04DX003 (ip), vehicle: gum acacia 103 % of control

Cc1cc(C2=NCC(C)S2)c(C(C)C)cc1O (stereo unspecified)
inactive: dose: 100.0 mg/kg/injection, schedule: Q04DX002 (ip), vehicle: saline with Tween-80 93 % of control | dose: 200.0 mg/kg/injection, schedule: Q04DX002 (ip), vehicle: saline with Tween-80 104 % of control | dose: 400.0 mg/kg/injection, schedule: Q04DX002 (ip), vehicle: saline with Tween-80 104 % of control

Cc1c(Cl)cccc1N=Cc1ccccc1O
inactive: dose: 50.0 mg/kg/injection, schedule: Q01DX009 (ip), vehicle: Klucel (hydroxypropylcellulose) (HPC) 96 % of control | [1] 108 % of control | [2] 109 % of control | [3] 110 % of control | [4] 107 % of control | [6] 98 % of control

CN(C)C12CCCCC1S(=O)(=O)C2 (stereo unspecified)
inactive: dose: 10.0 mg/kg/injection, schedule: Q01DX009 (ip), vehicle: saline 88 % of control | dose: 20.0 mg/kg/injection, schedule: Q01DX009 (ip), vehicle: saline 98 % of control

COc1ccc(NC2=CC(=O)C(=O)c3ccccc32)nn1
inactive: [11] 91 % of control | [12] 89 % of control | [13] 95 % of control

O=NN(CCCl)C(=O)Nc1cccc2cccnc12
inactive: dose: 0.62 mg/kg/injection, schedule: Q01DX001 (ip), vehicle: carboxymethylcellulose (CMC) 112 % of control | dose: 1.25 mg/kg/injection, schedule: Q01DX001 (ip), vehicle: carboxymethylcellulose (CMC) 117 % of control | dose: 2.5 mg/kg/injection, schedule: Q01DX001 (ip), vehicle: carboxymethylcellulose (CMC) 117 % of control

Nc1cccc2c1-c1ccccc1C2=O
inactive: dose: 50.0 mg/kg/injection, schedule: Q04DX002 (ip), vehicle: Klucel (hydroxypropylcellulose) (HPC) 103 % of control | [14] 88 % of control | [15] 103 % of control

Nc1cc2ccccc2c(Br)n1
inactive: dose: 100.0 mg/kg/injection, schedule: Q01DX001 (ip), vehicle: saline with Tween-80 110 % of control | dose: 100.0 mg/kg/injection, schedule: Q01DX009 (ip), vehicle: saline sonified 98 % of control | dose: 200.0 mg/kg/injection, schedule: Q01DX001 (ip), vehicle: saline with Tween-80 105 % of control | dose: 200.0 mg/kg/injection, schedule: Q01DX009 (ip), vehicle: saline sonified 93 % of control | dose: 400.0 mg/kg/injection, schedule: Q01DX001 (ip), vehicle: saline with Tween-80 100 % of control | dose: 400.0 mg/kg/injection, schedule: Q01DX009 (ip), vehicle: saline sonified 98 % of control

CC(C(O)c1ccc(Br)cc1)C(O)(C(F)(F)F)C(F)(F)F (stereo unspecified)
inactive: dose: 100.0 mg/kg/injection, schedule: Q01DX009 (ip), vehicle: other 111 % of control | dose: 200.0 mg/kg/injection, schedule: Q01DX009 (ip), vehicle: other 97 % of control | dose: 400.0 mg/kg/injection, schedule: Q01DX009 (ip), vehicle: other 103 % of control

OC(CNc1ccccc1)CN1CCCC1 (stereo unspecified)
inactive: [7] 89 % of control | [8] 94 % of control

CC(C)OP1(=O)OCC(C)O1 (stereo unspecified)
inactive: [11] 102 % of control | [12] 98 % of control | [13] 102 % of control

CCCCCCCC[Se](=O)O
inactive: dose: 5.0 mg/kg/injection, schedule: Q01DX001 (ip), vehicle: carboxymethylcellulose (CMC) 95 % of control | dose: 10.0 mg/kg/injection, schedule: Q01DX001 (ip), vehicle: carboxymethylcellulose (CMC) 109 % of control | dose: 20.0 mg/kg/injection, schedule: Q01DX001 (ip), vehicle: carboxymethylcellulose (CMC) 109 % of control

O=S(=O)(c1ccccc1)C1C2C=CC(O2)C1S(=O)(=O)c1ccccc1 (stereo unspecified)
inactive: [14] 91 % of control | [15] 93 % of control | [16] 93 % of control

CCCCNC(=O)Nc1cc(Cl)c(Cl)cc1C
inactive: [14] 91 % of control | [15] 97 % of control | [16] 97 % of control

Nc1nc(N)nc(CCCCCCc2nc(N)nc(N)n2)n1
inactive: dose: 50.0 mg/kg/injection, schedule: Q01DX001 (ip), vehicle: carboxymethylcellulose (CMC) 88 % of control | [9] 88 % of control | [10] 98 % of control

COc1ccc(NC(=O)ON(C)C)cc1
inactive: dose: 100.0 mg/kg/injection, schedule: Q04DX002 (ip), vehicle: DMSO 111 % of control | dose: 200.0 mg/kg/injection, schedule: Q04DX002 (ip), vehicle: DMSO 108 % of control | dose: 400.0 mg/kg/injection, schedule: Q04DX002 (ip), vehicle: DMSO 101 % of control

Nc1ccc2oc3cccc(N)c3c(=O)c2c1
inactive: [11] 94 % of control | [12] 96 % of control | [13] 96 % of control
